Data as given in ChEMBL document CHEMBL4613266, “Discovery and Structure Relationships of Salicylanilide Derivatives as Potent, Non-acidic P2X1 Receptor Antagonists” (J Med Chem, 2020).
pIC50: −log10 of the molar value.

Assays:
[1] = target: T1, P2X purinoceptor 1 (Homo sapiens) (UniProt P51575); experiment: Antagonist activity at non-desensitizing human P2X1 receptor ( P2X2/P2X1 chimera) expressed in human 1321N1 cells assessed as inhibition of ATP-induced calcium influx at 1 uM pre-incubated for 30 mins before ATP stimulation by FLIPR assay relative to control; format: cell-based
T1 sequence (whole entry): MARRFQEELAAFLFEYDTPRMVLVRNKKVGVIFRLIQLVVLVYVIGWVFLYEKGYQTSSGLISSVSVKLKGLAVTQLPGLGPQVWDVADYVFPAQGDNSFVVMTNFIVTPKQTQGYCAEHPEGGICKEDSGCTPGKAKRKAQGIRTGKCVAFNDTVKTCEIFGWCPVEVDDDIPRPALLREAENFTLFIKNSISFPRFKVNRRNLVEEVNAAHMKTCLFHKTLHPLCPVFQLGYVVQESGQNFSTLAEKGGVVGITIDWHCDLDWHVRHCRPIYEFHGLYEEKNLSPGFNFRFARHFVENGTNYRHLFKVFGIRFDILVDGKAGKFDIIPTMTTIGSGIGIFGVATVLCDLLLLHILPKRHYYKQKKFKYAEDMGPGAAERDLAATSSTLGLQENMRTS

[2] = target: P2X purinoceptor 1 (Homo sapiens, UniProt P51575); experiment: Antagonist activity at non-desensitizing human P2X1 receptor ( P2X2/P2X1 chimera) expressed in human 1321N1 cells assessed as inhibition of ATP-induced calcium influx pre-incubated for 30 mins before ATP stimulation by FLIPR assay relative to control; format: cell-based
[3] = target: T1, P2X purinoceptor 1 (Homo sapiens); experiment: Antagonist activity at non-desensitizing human P2X1 receptor ( P2X2/P2X1 chimera) expressed in human 1321N1 cells assessed as inhibition of ATP-induced calcium influx at 10 uM pre-incubated for 30 mins before ATP stimulation by FLIPR assay relative to control; format: cell-based
[4] = target: T2, P2X purinoceptor 2 (Homo sapiens, UniProt Q9UBL9); experiment: Antagonist activity at human P2X2 receptor expressed in human 1321N1 cells assessed as inhibition of ATP-induced cytosolic calcium influx preincubated for 30 mins followed by ATP addition by Fluo-4 AM dye-based fluorescence assay; format: cell-based
T2 sequence (Q9UBL9 whole entry): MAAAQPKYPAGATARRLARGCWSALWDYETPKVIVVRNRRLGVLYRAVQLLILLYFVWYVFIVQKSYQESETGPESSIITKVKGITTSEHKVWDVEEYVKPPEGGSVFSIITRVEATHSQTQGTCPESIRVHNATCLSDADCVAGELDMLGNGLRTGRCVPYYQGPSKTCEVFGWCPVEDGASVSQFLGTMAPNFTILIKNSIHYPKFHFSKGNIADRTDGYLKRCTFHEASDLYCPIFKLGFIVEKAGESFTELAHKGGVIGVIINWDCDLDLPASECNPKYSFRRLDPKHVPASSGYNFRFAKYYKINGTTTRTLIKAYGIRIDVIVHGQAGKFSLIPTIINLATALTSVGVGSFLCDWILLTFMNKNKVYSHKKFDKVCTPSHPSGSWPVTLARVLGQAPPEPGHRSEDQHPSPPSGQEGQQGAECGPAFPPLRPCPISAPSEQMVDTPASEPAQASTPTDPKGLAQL

[5] = target: T3, P2X purinoceptor 2 (Homo sapiens) (UniProt Q9UBL9); experiment: Antagonist activity at human P2X2 receptor expressed in human 1321N1 cells assessed as inhibition of ATP-induced cytosolic calcium influx at 10 uM preincubated for 30 mins followed by ATP addition by Fluo-4 AM dye-based fluorescence assay relative to control; format: cell-based
T3 sequence (whole entry): T2 sequence (Q9UBL9 whole entry)

[6] = target: T4, P2X purinoceptor 3 (Homo sapiens, UniProt P56373); experiment: Antagonist activity at human P2X3 receptor expressed in human 1321N1 cells assessed as inhibition of ATP-induced cytosolic calcium influx preincubated for 30 mins followed by ATP addition by Fluo-4 AM dye-based fluorescence assay; format: cell-based
T4 sequence (P56373 whole entry): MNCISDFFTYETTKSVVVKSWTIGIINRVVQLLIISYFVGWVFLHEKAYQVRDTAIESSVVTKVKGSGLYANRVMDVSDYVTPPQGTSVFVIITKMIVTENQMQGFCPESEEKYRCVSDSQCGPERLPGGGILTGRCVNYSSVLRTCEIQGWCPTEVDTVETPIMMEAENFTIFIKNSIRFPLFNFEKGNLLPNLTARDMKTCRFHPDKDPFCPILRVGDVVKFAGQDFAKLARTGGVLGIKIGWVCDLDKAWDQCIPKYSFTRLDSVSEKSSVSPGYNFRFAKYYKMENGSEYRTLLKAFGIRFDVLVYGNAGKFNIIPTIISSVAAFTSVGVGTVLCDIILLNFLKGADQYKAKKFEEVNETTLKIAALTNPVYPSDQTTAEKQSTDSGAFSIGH

[7] = target: T5, P2X purinoceptor 3 (Homo sapiens) (UniProt P56373); experiment: Antagonist activity at human P2X3 receptor expressed in human 1321N1 cells assessed as inhibition of ATP-induced cytosolic calcium influx at 10 uM preincubated for 30 mins followed by ATP addition by Fluo-4 AM dye-based fluorescence assay relative to control; format: cell-based
T5 sequence (whole entry): T4 sequence (P56373 whole entry)

[8] = target: T6, P2X purinoceptor 4 (Homo sapiens, UniProt Q99571); experiment: Antagonist activity at human P2X4 receptor expressed in human 1321N1 cells assessed as inhibition of ATP-induced cytosolic calcium influx preincubated for 30 mins followed by ATP addition by Fluo-4 AM dye-based fluorescence assay; format: cell-based
T6 sequence (Q99571 whole entry): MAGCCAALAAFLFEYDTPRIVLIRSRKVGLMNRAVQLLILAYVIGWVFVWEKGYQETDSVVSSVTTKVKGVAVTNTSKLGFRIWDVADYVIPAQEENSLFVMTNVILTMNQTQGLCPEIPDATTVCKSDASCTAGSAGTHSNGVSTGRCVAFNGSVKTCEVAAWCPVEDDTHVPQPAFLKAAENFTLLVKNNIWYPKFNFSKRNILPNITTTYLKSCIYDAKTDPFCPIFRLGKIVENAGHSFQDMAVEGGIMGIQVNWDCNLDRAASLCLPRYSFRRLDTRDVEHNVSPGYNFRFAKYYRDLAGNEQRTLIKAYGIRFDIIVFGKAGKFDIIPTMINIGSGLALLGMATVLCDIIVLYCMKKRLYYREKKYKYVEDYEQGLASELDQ

[9] = target: T7, P2X purinoceptor 7 (Homo sapiens, UniProt Q99572); experiment: Antagonist activity at human P2X7 receptor expressed in human 1321N1 cells assessed as inhibition of ATP-induced cytosolic calcium influx preincubated for 30 mins followed by ATP addition by Fluo-4 AM dye-based fluorescence assay; format: cell-based
T7 sequence (Q99572 whole entry): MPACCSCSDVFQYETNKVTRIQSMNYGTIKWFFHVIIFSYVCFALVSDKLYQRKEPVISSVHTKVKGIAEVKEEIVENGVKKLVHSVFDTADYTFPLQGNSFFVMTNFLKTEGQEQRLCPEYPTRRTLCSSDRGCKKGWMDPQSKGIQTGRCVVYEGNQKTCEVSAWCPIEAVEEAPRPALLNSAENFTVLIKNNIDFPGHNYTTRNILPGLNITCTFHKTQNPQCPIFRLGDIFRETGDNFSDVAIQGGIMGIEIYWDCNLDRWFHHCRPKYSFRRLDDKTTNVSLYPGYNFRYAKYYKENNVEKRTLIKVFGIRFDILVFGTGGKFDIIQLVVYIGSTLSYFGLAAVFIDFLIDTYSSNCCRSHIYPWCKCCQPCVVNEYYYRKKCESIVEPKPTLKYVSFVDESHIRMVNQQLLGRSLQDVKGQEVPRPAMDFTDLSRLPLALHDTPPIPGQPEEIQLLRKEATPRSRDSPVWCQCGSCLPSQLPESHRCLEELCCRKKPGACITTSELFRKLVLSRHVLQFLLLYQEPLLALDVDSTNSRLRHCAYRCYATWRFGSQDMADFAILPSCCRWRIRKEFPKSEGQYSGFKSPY

[10] = target: T1, P2X purinoceptor 1 (Homo sapiens); experiment: Antagonist activity P2X1 receptor in Apyrase pre-treated human platelets assessed as inhibition of TRAP6-induced platelet aggregation pre-incubated for 30 mins before TRAP6 stimulation by aggregometry relative to control; format: cell-based
[11] = target: T1, P2X purinoceptor 1 (Homo sapiens); experiment: Antagonist activity P2X1 receptor in human platelets assessed as inhibition of ADP-induced platelet aggregation pre-incubated for 30 mins before ADP stimulation by aggregometry relative to control; format: cell-based
[12] = target: T1, P2X purinoceptor 1 (Homo sapiens); experiment: Antagonist activity at non-desensitizing human P2X1 receptor ( P2X2/P2X1 chimera) expressed in human 1321N1 cells assessed as inhibition of ATP-induced calcium influx at 100 uM pre-incubated for 30 mins before ATP stimulation by FLIPR assay relative to control; format: cell-based
[13] = target: T8, P2X purinoceptor 1 (Rattus norvegicus, UniProt P47824); experiment: Antagonist activity at rat P2X1 receptor
T8 sequence (P47824 whole entry): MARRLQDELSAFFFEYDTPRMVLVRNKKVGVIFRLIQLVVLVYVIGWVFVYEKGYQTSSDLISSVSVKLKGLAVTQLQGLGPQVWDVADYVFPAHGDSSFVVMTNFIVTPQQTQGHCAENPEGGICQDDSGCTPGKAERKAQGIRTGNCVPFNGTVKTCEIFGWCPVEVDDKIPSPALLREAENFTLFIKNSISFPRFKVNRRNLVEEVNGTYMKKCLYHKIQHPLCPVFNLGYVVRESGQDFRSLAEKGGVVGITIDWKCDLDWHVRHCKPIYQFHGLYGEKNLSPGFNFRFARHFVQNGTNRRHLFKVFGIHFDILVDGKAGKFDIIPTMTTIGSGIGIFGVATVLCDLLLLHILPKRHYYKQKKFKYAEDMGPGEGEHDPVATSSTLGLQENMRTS

[14] = target: T1, P2X purinoceptor 1 (Homo sapiens); experiment: Antagonist activity P2X1 receptor in Apyrase pre-treated human platelets assessed as inhibition of collagen-induced platelet aggregation pre-incubated for 30 mins before collagen stimulation by aggregometry relative to control; format: cell-based

N#Cc1cccc(NC(=O)c2cc(Cl)ccc2O)c1
inhibition [1]: 60% | pIC50 [2]: 6.28

O=C(Nc1cc(Cl)cc(Cl)c1)c1cc(Cl)ccc1O
inhibition [3]: 56% | pIC50 [2]: 7.53 | pIC50 [4]: < 5.00 | inhibition [5]: -5% | pIC50 [6]: < 5.00 | inhibition [7]: 5% | pIC50 [8]: 6.15 | pIC50 [9]: 7.15 | inhibition [10]: 13% | inhibition [11]: 26%

O=C(Nc1cc(C(F)(F)F)cc(C(F)(F)F)c1)N1CCCc2cccc(O)c21
pIC50 [2]: 4.98 | inhibition [12]: 77%

O=C(Nc1cccc(Br)c1)c1ccccc1O
pIC50 [2]: 5.57 | inhibition [12]: 98%

O=S(=O)(Nc1cc(C(F)(F)F)cc(C(F)(F)F)c1)c1cc(Cl)ccc1O
inhibition [3]: 80% | pIC50 [2]: 6.36 | inhibition [10]: 8% | inhibition [11]: 27%

Cc1ccc(C(=O)Nc2ccc(S(=O)(=O)O)c3cc(S(=O)(=O)O)cc(S(=O)(=O)O)c23)cc1NC(=O)c1cccc(NC(=O)Nc2cccc(C(=O)Nc3cc(C(=O)Nc4ccc(S(=O)(=O)O)c5cc(S(=O)(=O)O)cc(S(=O)(=O)O)c45)ccc3C)c2)c1 [SURAMIN]
pIC50 [13]: 5.77 to 6.00 | inhibition [3]: > 90% | inhibition [1]: > 40%

O=C(Nc1ccc(C(F)(F)F)cc1)c1cc(Cl)ccc1O
inhibition [3]: 53% | inhibition [5]: 3% | inhibition [7]: -6% | inhibition [14]: 7% | inhibition [10]: 6% | inhibition [11]: 23%

O=C(Nc1cc(C(F)(F)F)cc(C(F)(F)F)c1)c1ccccc1
inhibition [3]: 79% | pIC50 [2]: 5.65 | inhibition [11]: 47%

O=C(Nc1cc(C(F)(F)F)cc(C(F)(F)F)c1)c1ccc(Cl)cc1O
inhibition [3]: 59% | pIC50 [2]: 7.64 | pIC50 [4]: < 5.00 | inhibition [5]: -5% | pIC50 [6]: < 5.00 | inhibition [7]: 2% | pIC50 [8]: 6.68 | pIC50 [9]: 6.71

O=C(Nc1cc(C(=O)Nc2ccc(S(=O)(=O)O)cc2S(=O)(=O)O)cc(C(=O)Nc2ccc(S(=O)(=O)O)cc2S(=O)(=O)O)c1)Nc1cc(C(=O)Nc2ccc(S(=O)(=O)O)cc2S(=O)(=O)O)cc(C(=O)Nc2ccc(S(=O)(=O)O)cc2S(=O)(=O)O)c1
pIC50 [13]: 9.55 | inhibition [3]: 100%
